Data on 14 compounds can be found in ChEMBL document CHEMBL1201862, “PubChem BioAssay data set” (2004).

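Each compound was tested at five concentrations against cells in 96-well plates for 48 hours. Abbreviation: GI50, concentration required for 50% inhibition of growth.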 Activity calls are given as the source filed them. Rule as the data show it: active = GI50 up to about 1.1 µM and inactive = higher. Some results are limits rather than exact numbers.

Among the test systems are M14; SF-295; 786-0; NCI-H460; OVCAR-8; UACC-62; U-251; NCI-H226; EKVX; SN12C; SK-MEL-2; HOP-92; RPMI-8226; SW-620; CAKI-1; SK-OV-3.
Holding throughout (test): NCI tumour cell line growth inhibition, 48 h

For `O=C(CC1Sc2ccccc2NC1=O)Nc1ccc([N+](=O)[O-])cc1[N+](=O)[O-]` (stereo unspecified), the GI50 in the test with M14 is 16 µM (inactive); in the test on SF-295, 16.8 µM (inactive); with 786-0 it was 17.9 µM (inactive); in the test with NCI-H460, 23.7 µM (inactive); in the test on OVCAR-8, 16.5 µM (inactive); with UACC-62, 15.4 µM (inactive). The GI50 was 16 µM (inactive) with U-251; 11.9 µM (inactive) with NCI-H226; 32.2 µM (inactive) in the test on EKVX; 16.1 µM (inactive) in the test with SN12C; 19.5 µM (inactive) in the test with SK-MEL-2; 11 µM (inactive) with HOP-92. For the same compound, the GI50 with RPMI-8226 is 11.3 µM (inactive); with SW-620, 18.4 µM (inactive).
In the case of `COc1ccc2nc3cc(Cl)ccc3c(NC(C)CCCN(CCCl)CCCl)c2c1` (stereo unspecified), the GI50 with M14 is 0.809 µM (active); in the test on CAKI-1, 0.785 µM (active); in the test with SF-295, 0.215 µM (active); with 786-0 it was 0.31 µM (active); in the test with SK-OV-3 it was 0.83 µM (active); with NCI-H460, 0.159 µM (active). For the same compound, the GI50 was 0.169 µM (active) with OVCAR-8; 0.29 µM (active) in the test with UACC-62; 0.607 µM (active) in the test with U-251; 0.387 µM (active) in the test on NCI-H226; 0.787 µM (active) in the test with EKVX; 0.269 µM (active) with SN12C. Further, the GI50 in the test on SK-MEL-2 is 1.1 µM (active); in the test with HOP-92, 0.569 µM (active); with RPMI-8226 it was 0.293 µM (active); with SW-620 it was 0.116 µM (active).
`Nc1cccc(C(=O)/C=C/c2ccccc2O)c1`: the GI50 in the test on M14 was > 100 µM (inactive); in the test with CAKI-1 it was > 100 µM (inactive); with SF-295, > 100 µM (inactive); in the test on 786-0, 33.1 µM (inactive); in the test with SK-OV-3, > 100 µM (inactive); with NCI-H460, > 100 µM (inactive). Besides, the GI50 is > 100 µM (inactive) in the test on OVCAR-8; > 100 µM (inactive) with UACC-62; 98.6 µM (inactive) in the test with U-251; > 100 µM (inactive) in the test on NCI-H226; > 100 µM (inactive) in the test on EKVX; > 100 µM (inactive) in the test with SN12C. For the same compound, the GI50 was > 100 µM (inactive) in the test on SK-MEL-2, > 100 µM (inactive) with HOP-92, 16.2 µM (inactive) with RPMI-8226 and 12.2 µM (inactive) in the test with SW-620.
In the case of `Cc1nc2ccccn2c1/N=N/c1ccc(C(=O)NN)cc1`, the GI50 in the test with M14 was > 100 µM (inactive); in the test on CAKI-1 it was 22.2 µM (inactive); in the test on SF-295, 43.2 µM (inactive); in the test on 786-0 it was 53.8 µM (inactive); in the test with SK-OV-3, 48 µM (inactive); with OVCAR-8 it was 95.3 µM (inactive). Moreover, the GI50 with UACC-62 was 80.2 µM (inactive); in the test with U-251 it was 61.7 µM (inactive); with NCI-H226 it was 25.5 µM (inactive); in the test with EKVX, 36.5 µM (inactive); in the test with SN12C, 27.7 µM (inactive); in the test with HOP-92 it was 46.5 µM (inactive). Also, the GI50 was 28.4 µM (inactive) in the test on RPMI-8226 and 49.3 µM (inactive) with SW-620.
On to `C#CC1(O)CCC2C3CCc4cc(Oc5nc(F)nc(-c6c7ccccc7c7n6CCS7)n5)ccc4C3CC[C@@]21C` (stereo partly specified), for which the GI50 in the test on M14 is 17.5 µM (inactive); in the test on CAKI-1, 28.8 µM (inactive); in the test with SF-295 it was 15.6 µM (inactive); in the test with 786-0 it was 34.1 µM (inactive); in the test with NCI-H460, 35.4 µM (inactive); with OVCAR-8, 27.7 µM (inactive). Moreover, the GI50 is 21.1 µM (inactive) in the test on UACC-62; 17.5 µM (inactive) with U-251; 34 µM (inactive) in the test on NCI-H226; 5.62 µM (inactive) in the test on SK-MEL-2; 23.8 µM (inactive) with HOP-92; 19.6 µM (inactive) in the test with RPMI-8226. For the same compound, the GI50 with SW-620 is 32.6 µM (inactive).
`C[S+]=c1sc2ccccc2s1`: the GI50 in the test with M14, in the test on CAKI-1, in the test with SF-295, with 786-0, in the test with SK-OV-3 and in the test with NCI-H460 was > 100 µM (inactive) each time. In addition, the GI50 in the test with OVCAR-8, with UACC-62, in the test with U-251, in the test on NCI-H226, in the test on SN12C and with SK-MEL-2 was > 100 µM (inactive) each time. Besides, the GI50 in the test on HOP-92, in the test with RPMI-8226 and with SW-620 was > 100 µM (inactive) throughout.
As for `COc1ccc(C(=O)C(C(=O)CC(=O)Nc2cccc(C(F)(F)F)c2)c2ccc(OC)cc2)cc1` (stereo unspecified), the GI50 in the test with M14, in the test with CAKI-1, with SF-295, in the test with 786-0, in the test with SK-OV-3 and with NCI-H460 was > 100 µM (inactive) in each case. Also, the GI50 with OVCAR-8, in the test with UACC-62, with U-251, with NCI-H226, in the test with EKVX and in the test with SN12C was > 100 µM (inactive) throughout. Moreover, the GI50 in the test with SK-MEL-2, in the test on HOP-92, with RPMI-8226 and with SW-620 was > 100 µM (inactive) each time.
On to `COC(=O)C1CC2CC(=NNC(N)=O)CC2C1` (stereo unspecified), for which the GI50 in the test on M14, in the test on CAKI-1, with SF-295, in the test on 786-0, with SK-OV-3 and in the test on NCI-H460 was > 100 µM (inactive) in each case. Moreover, the GI50 with OVCAR-8, in the test with UACC-62, with U-251, in the test on EKVX, in the test with SN12C and with SK-MEL-2 was > 100 µM (inactive) each time. Further, the GI50 with HOP-92, in the test with RPMI-8226 and in the test with SW-620 was > 100 µM (inactive) throughout.
With `NC(=O)C(=O)Cc1nc2ccccc2s1`, the GI50 in the test with M14, in the test with SF-295, in the test on 786-0, with SK-OV-3, in the test on NCI-H460 and in the test on OVCAR-8 was > 100 µM (inactive) in each case. Further, the GI50 in the test with U-251, in the test on NCI-H226, with EKVX, in the test with SN12C, in the test with SK-MEL-2 and in the test with HOP-92 was > 100 µM (inactive) each time. Also, the GI50 in the test on RPMI-8226 and in the test with SW-620 was > 100 µM (inactive) throughout.
As for `CC1CC(=O)Nc2ccccc2N1C(=O)CN1CCC(CCCCN(C)C)CC1` (stereo unspecified), the GI50 in the test on M14, in the test with CAKI-1, in the test on SF-295, with 786-0, with NCI-H460 and in the test on OVCAR-8 was > 100 µM (inactive) in each case. The GI50 with UACC-62, in the test on U-251, in the test on NCI-H226, in the test on EKVX, in the test with SN12C and in the test with SK-MEL-2 was > 100 µM (inactive) in each case. Further, the GI50 with RPMI-8226 and with SW-620 was > 100 µM (inactive) throughout.
In the case of `CC1=N/C(=C\c2cccc3ccccc23)C(=O)O1`, the GI50 in the test on M14, in the test with SF-295, in the test on 786-0, with NCI-H460, with OVCAR-8 and in the test on UACC-62 was > 100 µM (inactive) throughout. The GI50 in the test on U-251, in the test on EKVX, with SN12C, with SK-MEL-2, in the test with HOP-92 and with RPMI-8226 was > 100 µM (inactive) throughout. Also, in the test on SW-620, the GI50 is > 100 µM (inactive).
As for `COC(=O)C1(C)NCCc2c1[nH]c1ccccc21` (stereo unspecified), the GI50 in the test with M14, with CAKI-1, with SF-295, in the test on 786-0, in the test on SK-OV-3 and with OVCAR-8 was > 100 µM (inactive) in each case. For the same compound, the GI50 in the test on UACC-62, in the test on U-251, in the test on EKVX, with SN12C, in the test with SK-MEL-2 and with HOP-92 was > 100 µM (inactive) each time. The GI50 with RPMI-8226 and in the test with SW-620 was > 100 µM (inactive) throughout.
In the case of `CN(C)C(=N)c1ccccc1`, the GI50 in the test with M14, in the test with CAKI-1, in the test on SF-295, in the test with 786-0, in the test on NCI-H460 and in the test on OVCAR-8 was > 100 µM (inactive) throughout. For the same compound, the GI50 in the test with U-251, in the test on NCI-H226, in the test on SN12C, with SK-MEL-2, in the test with HOP-92 and in the test on SW-620 was > 100 µM (inactive) throughout.
Consider `CCC12C=C(C(=O)OC)N3c4ccccc4C4CCN(CCC1)C2C43` (stereo unspecified), for which the GI50 with M14 was 33.4 µM (inactive); in the test on CAKI-1, 35.6 µM (inactive); in the test with SF-295 it was 98.2 µM (inactive); in the test on 786-0, 21.3 µM (inactive); in the test with SK-OV-3, > 100 µM (inactive); with OVCAR-8, > 100 µM (inactive). For the same compound, the GI50 with UACC-62 was > 100 µM (inactive); in the test with U-251 it was 82.4 µM (inactive); with NCI-H226 it was 25.3 µM (inactive); in the test on EKVX it was > 100 µM (inactive); with SN12C, 83.8 µM (inactive); in the test on SK-MEL-2, > 100 µM (inactive). Besides, the GI50 in the test with HOP-92 was 34.8 µM (inactive); in the test with RPMI-8226 it was 50.6 µM (inactive); in the test with SW-620 it was 59.7 µM (inactive).
